Assays:
[1] = Test of bioavailability: plasma concentration in rats after intragastric administration; format: in vivo; conditions: mean±SD, n=10
Experimental: Preparation of coenzyme Q10 raw material sample solution: 0.1 g of coenzyme Q10 crystal is accurately weighed and dissolved in 100 mL of diethylene glycol monoethyl ether solution, as a raw material sample.
Microemulsion samples of Examples 1 to 6, coded as Sample 1, Sample 2, Sample 3, Sample 4, Sample 5 and Sample 6, are selected to conduct animal experiments.
Experimental conditions: the temperature of the laboratory feeding environment is 25±3° C., the relative humidity is 55% to 70%, the animals are free to drink water and eat food (deionized water and standard feed) every day, and they are fasted for 12 hours before the experiment but drink water freely.
Experimental animals and grouping: seventy 8-week-old healthy SPF-grade male SD rats, provided by Hubei Experimental Animal Research Center, weighing from 220 g to 230 g.
The rats are operated according to the international experimental guidelines for experimental animals, and every 10 rats fasted for 12 hours are divided into one group by a completely random design, totally seven groups.
Oral administration, sample collection and treatment: the rats are intragastrically administered with the same dose (15 mg/kg: coenzyme Q10 content) of microemulsion samples 1 to 6 and raw material samples, respectively. After administration, plasma is collected at 5 minutes, 15 minutes, 30 minutes, 1 hour, 3 hours, 6 hours, 10 hours and 15 hours, respectively, and put into anticoagulant centrifuge tubes containing heparin, mixed uniformly and then centrifuged to separate the plasma. After the treatment, the plasma concentration is detected by HPLC.
According to the results of the plasma concentration, statistical fitting analysis is carried out by using statistical analysis software, to calculate the plasma concentration. The results is expressed as mean value±standard deviation.

[2] = Test of particle size DV(90) (laser particle size distribution); format: physicochemical; conditions: sample diluted 1:20 with distilled water, 25° C.
Experimental: The microemulsion sample is diluted with distilled water at a ratio of 1:20 and gently shaken to form a clear microemulsion. Then, the particle size distribution of the emulsion is measured by MASTERSIZER 3000 laser particle size distribution instrument (purchased from Malvern Company, UK) at 25° C.

[3] = Test of stability: oxygen filling (25° C.), 15 days; format: physicochemical
Source text: (§1) The coenzyme Q10 microemulsion is quickly poured into a transparency meter barrel, and an inspector observes vertically downward from the barrel mouth of the transparency meter, and slowly releases the microemulsion just to a height of the microemulsion where the type at the bottom can be clearly recognized. The height of the microemulsion is the transparency of the coenzyme Q10 microemulsion, which is generally more than 30 cm to be transparent. The measurement is repeated for 3 times, and the results are averaged.
(§2) Microemulsion samples and coenzyme Q10 raw material are placed in the conditions of irradiation at 4500 Lx light intensity, oxygen filling (25° C.) and 60° C. (incubator) for 15 days, respectively, for experiments. In these experiments, samples are taken on day 0, day 5, day 10 and day 15, respectively, and the content of coenzyme Q10 is determined by HPLC, to investigate the effects of light, oxygen and temperature on the labeled content (%) of coenzyme Q10 and the appearance.
(§3) Refer to the test method of coenzyme Q10 content in Chinese Pharmacopoeia (2015 edition).

[4] = Test of stability: 60° C. (incubator), 15 days; format: physicochemical
Source text: as §1, §2, §3

[5] = Test of stability: irradiation at 4500 Lx light intensity, 15 days; format: physicochemical; conditions: 4500 Lx illumination
Source text: as §1, §2, §3

average plasma concentration ([1]; intragastric 15 mg/kg coenzyme Q10, 5 minutes): 12.1 µg/L
average plasma concentration ([1]; intragastric 15 mg/kg coenzyme Q10, 15 minutes): 21.3 µg/L
average plasma concentration ([1]; intragastric 15 mg/kg coenzyme Q10, 30 minutes): 49.3 µg/L
average plasma concentration ([1]; intragastric 15 mg/kg coenzyme Q10, 1 hour): 93.0 µg/L
average plasma concentration ([1]; intragastric 15 mg/kg coenzyme Q10, 3 hours): 110.4 µg/L
average plasma concentration ([1]; intragastric 15 mg/kg coenzyme Q10, 6 hours): 83.3 µg/L
average plasma concentration ([1]; intragastric 15 mg/kg coenzyme Q10, 10 hours): 37.6 µg/L
average plasma concentration ([1]; intragastric 15 mg/kg coenzyme Q10, 15 hours): 11.5 µg/L
DV(90) [2]: 75000 nm
Labeled content of coenzyme Q10 ([3]; 0 day): 99%
Labeled content of coenzyme Q10 ([3]; 5 days): 97%
Labeled content of coenzyme Q10 ([3]; 10 days): 95%
Labeled content of coenzyme Q10 ([3]; 15 days): 90%
Labeled content of coenzyme Q10 ([4]; 0 day): 99%
Labeled content of coenzyme Q10 ([4]; 5 days): 97%
Labeled content of coenzyme Q10 ([4]; 10 days): 95%
Labeled content of coenzyme Q10 ([4]; 15 days): 92%
Labeled content of coenzyme Q10 ([5]; 0 day): 99%
Labeled content of coenzyme Q10 ([5]; 5 days): 95%
Labeled content of coenzyme Q10 ([5]; 10 days): 93%
Labeled content of coenzyme Q10 ([5]; 15 days): 88%
SMILES: COC1=C(OC)C(=O)C(C/C=C(\C)CC/C=C(\C)CC/C=C(\C)CC/C=C(\C)CC/C=C(\C)CC/C=C(\C)CC/C=C(\C)CC/C=C(\C)CC/C=C(\C)CCC=C(C)C)=C(C)C1=O [coenzyme Q10 raw material, coenzyme Q10]

Source: patent publication US20240016763A1, “COENZYME Q10 MICROEMULSION, PREPARATION METHOD THEREFOR AND USE THEREOF” (ZHEJIANG NHU CO., LTD., priority 2021, published 2024)
